From patent US20120156185A1, “NUTRITIONAL COMPOSITIONS COMPRISING CITRUS FIBERS” (HERBAMED LTD., priority 2009, published 2012)
Several values for one entry are separate records, joined by “and”; a condition that tells them apart may be missing. Equal entries are not always repeated.

Assay: Oxygen radical absorbance capacity (ORAC) assay
Protocol: ORAC assay for fresh orange crush and dry flake extracts was carried out following the modified procedure of the method previously described by Prior et al (Prior R L. et al. 2003. J Agric Food Chem 5, 3273-3279). This assay measures the ability of antioxidant components in test materials to inhibit the decline in disodium fluorescein (FL) fluorescence that is induced by the peroxyl radical generator 2′,2′-Azobis (2-amidinopropane) dihydrochloride (AAPH). The reaction was obtained on fluorescent plate reader (Synergy HT, Bio-Tek Instruments, Winooski, Vt., USA). The mixture contained in the final assay mixture 200 μL of total volume, FL, 120 μL, […] and AAPH, 60 μL 32 mM final concentration. All reagents were prepared with 75 mM phosphate buffer, pH 7.4. FL, phosphate buffer and samples were pre-incubated at 37° C. for 15 min. The reaction was started by the addition of AAPH. Fluorescence was measured and recorded every 1.5 min at excitation length of 485 nm and emission length of 535 nm, until the fluorescence of the last reading declined to a value of less than or equal to 5% of the first reading. Phosphate buffer was used as a blank and 2.5-40 μM trolox were used as positive control standards. The final ORAC values were calculated by using a regression equation between the trolox concentration and the net area under the FL decay curve and were expressed as trolox equivalents (TE) as μmole per 100 g of fresh weight (FW) or dry weight (DW).
In both compounds the measured inhibition time was directly proportional to the concentration of the antioxidant. In the tasted concentration range 2.5, 5.0, 10.0 μM of trolox the Tinh were 14.6, 20.9, and 25.5 respectively. For comparison Tinh for 2.5, 5.0, 10.0 μM of hesperidin were 26.8, 45.0 and 62.5 min respectively. […] In ORAC assay Tinh measures the ability of antioxidant components in test materials to inhibit the decline in disodium fluorescein (FL) fluorescence that is induced by the peroxyl radical generator 2′,2′-Azobis (2-amidinopropane) dihydrochloride (AAPH). Tinh for 10 μM of hesperidin and 10 μM of trolox were 62.5 and 23.5 min respectively. […] Higher correlation was observed between Hesperidin concentration and its antioxidant capacity.

| SMILES | Tinh (inhibition time, antioxidant capacity) (2.5 μM) [min] | Tinh (inhibition time, antioxidant capacity) (5.0 μM) [min] | Tinh (inhibition time, antioxidant capacity) (10 μM) |
| --- | --- | --- | --- |
| Cc1c(C)c2c(c(C)c1O)CCC(C)(C(=O)O)O2 (stereo not drawn) [trolox, 6-hydroxy-2,5,7,8,-tetramethylchroman-2-carboxylic acid] | 14.6 | 20.9 | 25.5 min and 23.5 min |
| COc1ccc([C@@H]2CC(=O)c3c(O)cc(O[C@@H]4O[C@H](CO[C@@H]5O[C@@H](C)[C@H](O)[C@@H](O)[C@H]5O)[C@@H](O)[C@H](O)[C@H]4O)cc3O2)cc1O [hesperidin] | 26.8 | 45.0 | 62.5 min |
